Patent publication US8390681B1, “Computer assisted semen analyzer to analyze digital video clips received from a remote location” (LifeCell Dx, Inc., priority 2008, dated 2013)

Assays:
[1] = system: fertilization capacity; test: Fertilization capacity, concentration dependence of cannabinoids; settings: higher concentrations
[2] = system: mouse sperm; test: Mouse sperm pre-treated with drug, then artificial insemination into the mouse uterus; fertilization and embryo development scored; assay type: in vivo
Description: Studies show the cannabinoid implications in vivo in the mouse model. In separate experiments, mouse sperm are pre-treated with Meth-anandamide or AM-1346 and then the mouse sperm are inseminated into the mouse uterus (artificial insemination).
Each egg could be scored as 1-cell, 2-cell, 3-4 cell, 5-8 cell, morula, blastocysts or degenerated. Brief exposure of the sperm to the drug before insemination produces significant inhibition of 5 parameters. Compared to Control, the treated animals ovulate fewer ova (p<0.01, t-test). […] By Day 2, treatment produces a lower % of 2-cell eggs—again, fewer eggs are cleaving. […] The drug severely impairs fertilization and embryo development.

[3] = system: human sperm; test: Human sperm vigorous swimming (Hyperactivation, computer-tracking); assay type: cell-based
Description: Fertilization assays include changes in human sperm vigorous swimming (Hyperactivation, computer-tracking), changes in % moving, and changes in the ability of drug-treated sperm to complete the acrosome reaction, and ability to bind to the human egg cover (Hemizona assay).

[4] = sperm pre-treated with 100 nM, Day 1
[5] = sperm pre-treated with 100 nM, Day 3

Row | Structure (SMILES) | effect on fertilization capacity [1] | Number embryos per female ([2]; sperm pre-treated with 100 nM before insemination) | % ova as 1-cell on Day 1 [2, 4] | Number of 2-cells on Day 1 [2, 4] | % embryos >2-cell on Day 3 [2, 5] | % embryos degenerated on Day 3 [2, 5] | vigorous swimming of human sperm [3]
1 | CCCCC/C=C\C/C=C\C/C=C\C/C=C\CCCC(=O)NCCO [Anandamide, arachidonoyl-ethanolamide] | trends towards reduced fertilization capacity | – | – | – | – | – | –
2 | CCCCC/C=C\C/C=C\C/C=C\C/C=C\CCCC(=O)N[C@H](C)CO [Methanandamide, R-methanandamide] | biphasic effect: Higher concentrations produce inhibition | 4.3 ± 0.7 | 91.3% | 0.6 ± 0.2 | 25.0% | 44.2% | –
3 | CCCCC/C=C\C/C=C\C/C=C\C/C=C\CCCC(=O)NCc1ccoc1 [UCM] | – | – | – | – | – | – | blocks
